Consider six compounds from BindingDB's records for PubMed 35688004 (University of Hradec Kralove, 2022).

In general, IC50 refers to the concentration needed to halve the response being measured.

Assay [1] addresses Phosphatidylinositol 4,5-bisphosphate 3-kinase catalytic subunit beta isoform (Homo sapiens, UniProt P42338). In words: Inhibition of human PI3Kbeta preincubated for 15 mins followed by ATP addition measured after 1 hr by TR-FRET assay.
Assay [2] has as its target Phosphatidylinositol 4,5-bisphosphate 3-kinase catalytic subunit alpha isoform (Homo sapiens, UniProt P42336). In words: Inhibition of human PI3Kalpha preincubated for 15 mins followed by ATP addition measured after 1 hr by TR-FRET assay. (In TR-FRET formats the signal depends on donor and acceptor labels being close together.)
The target in assay [3] is Phosphatidylinositol 4,5-bisphosphate 3-kinase catalytic subunit gamma isoform (Homo sapiens, UniProt P48736). In words: Inhibition of human PI3Kgamma preincubated for 15 mins followed by ATP addition measured after 1 hr by TR-FRET assay.
Chain of Phosphatidylinositol 4,5-bisphosphate 3-kinase catalytic subunit gamma isoform (P48736 whole entry, canonical isoform): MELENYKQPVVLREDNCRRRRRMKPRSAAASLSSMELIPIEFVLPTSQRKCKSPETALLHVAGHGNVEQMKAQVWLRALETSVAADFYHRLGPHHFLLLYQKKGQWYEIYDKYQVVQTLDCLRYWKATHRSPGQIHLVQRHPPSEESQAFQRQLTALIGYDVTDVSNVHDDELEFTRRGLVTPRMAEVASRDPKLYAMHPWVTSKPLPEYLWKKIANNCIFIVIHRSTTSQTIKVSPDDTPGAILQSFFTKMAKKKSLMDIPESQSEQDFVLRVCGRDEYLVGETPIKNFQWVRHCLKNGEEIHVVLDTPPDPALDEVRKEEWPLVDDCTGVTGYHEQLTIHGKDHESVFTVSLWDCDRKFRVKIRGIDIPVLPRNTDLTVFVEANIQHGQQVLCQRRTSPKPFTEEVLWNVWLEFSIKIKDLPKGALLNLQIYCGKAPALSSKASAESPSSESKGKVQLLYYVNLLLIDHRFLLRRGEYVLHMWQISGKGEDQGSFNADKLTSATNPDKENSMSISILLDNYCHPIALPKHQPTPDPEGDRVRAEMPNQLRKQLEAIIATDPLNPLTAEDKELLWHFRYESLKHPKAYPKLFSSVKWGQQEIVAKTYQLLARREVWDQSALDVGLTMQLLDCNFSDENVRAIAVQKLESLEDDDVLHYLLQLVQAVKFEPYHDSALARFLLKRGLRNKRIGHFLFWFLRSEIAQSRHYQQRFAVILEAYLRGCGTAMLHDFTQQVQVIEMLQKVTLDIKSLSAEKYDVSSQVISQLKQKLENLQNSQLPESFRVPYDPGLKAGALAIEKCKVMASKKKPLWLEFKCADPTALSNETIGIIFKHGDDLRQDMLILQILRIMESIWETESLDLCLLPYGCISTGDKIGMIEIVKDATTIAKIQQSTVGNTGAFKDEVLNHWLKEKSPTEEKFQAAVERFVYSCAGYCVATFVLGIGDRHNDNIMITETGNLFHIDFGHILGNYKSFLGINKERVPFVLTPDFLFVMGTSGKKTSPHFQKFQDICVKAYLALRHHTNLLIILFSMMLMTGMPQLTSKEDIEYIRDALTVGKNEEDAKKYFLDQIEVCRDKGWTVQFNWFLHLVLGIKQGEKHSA

Chain of Phosphatidylinositol 4,5-bisphosphate 3-kinase catalytic subunit beta isoform (P42338 whole entry, canonical isoform): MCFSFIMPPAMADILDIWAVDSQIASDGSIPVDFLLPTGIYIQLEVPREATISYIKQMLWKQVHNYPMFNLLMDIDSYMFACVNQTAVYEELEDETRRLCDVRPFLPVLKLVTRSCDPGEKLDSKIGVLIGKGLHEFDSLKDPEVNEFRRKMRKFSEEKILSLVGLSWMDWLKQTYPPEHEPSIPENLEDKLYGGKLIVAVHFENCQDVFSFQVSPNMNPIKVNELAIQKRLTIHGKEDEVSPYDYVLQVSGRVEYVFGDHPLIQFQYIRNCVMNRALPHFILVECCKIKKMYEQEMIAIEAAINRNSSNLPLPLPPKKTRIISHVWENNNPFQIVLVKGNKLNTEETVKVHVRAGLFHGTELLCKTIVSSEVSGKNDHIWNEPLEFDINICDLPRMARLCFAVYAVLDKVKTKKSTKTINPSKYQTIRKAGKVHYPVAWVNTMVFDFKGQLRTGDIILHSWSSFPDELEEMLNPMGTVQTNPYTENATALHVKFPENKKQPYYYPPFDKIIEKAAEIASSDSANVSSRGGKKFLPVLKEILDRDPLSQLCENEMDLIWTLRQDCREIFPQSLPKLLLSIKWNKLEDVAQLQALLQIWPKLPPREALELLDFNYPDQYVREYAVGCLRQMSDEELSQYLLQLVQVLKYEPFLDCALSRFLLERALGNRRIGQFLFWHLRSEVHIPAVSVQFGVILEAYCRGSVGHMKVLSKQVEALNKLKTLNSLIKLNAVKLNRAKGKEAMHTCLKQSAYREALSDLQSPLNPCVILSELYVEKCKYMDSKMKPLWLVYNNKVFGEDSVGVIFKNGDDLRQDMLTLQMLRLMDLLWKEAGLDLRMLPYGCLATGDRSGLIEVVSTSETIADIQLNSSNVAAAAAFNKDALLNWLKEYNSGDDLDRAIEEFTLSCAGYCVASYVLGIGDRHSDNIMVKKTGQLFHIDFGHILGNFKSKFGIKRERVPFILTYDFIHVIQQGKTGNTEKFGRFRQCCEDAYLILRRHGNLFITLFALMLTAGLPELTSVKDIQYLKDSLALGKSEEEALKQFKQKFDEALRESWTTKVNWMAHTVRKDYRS
Chain of Phosphatidylinositol 4,5-bisphosphate 3-kinase catalytic subunit alpha isoform (P42336 whole entry, canonical isoform): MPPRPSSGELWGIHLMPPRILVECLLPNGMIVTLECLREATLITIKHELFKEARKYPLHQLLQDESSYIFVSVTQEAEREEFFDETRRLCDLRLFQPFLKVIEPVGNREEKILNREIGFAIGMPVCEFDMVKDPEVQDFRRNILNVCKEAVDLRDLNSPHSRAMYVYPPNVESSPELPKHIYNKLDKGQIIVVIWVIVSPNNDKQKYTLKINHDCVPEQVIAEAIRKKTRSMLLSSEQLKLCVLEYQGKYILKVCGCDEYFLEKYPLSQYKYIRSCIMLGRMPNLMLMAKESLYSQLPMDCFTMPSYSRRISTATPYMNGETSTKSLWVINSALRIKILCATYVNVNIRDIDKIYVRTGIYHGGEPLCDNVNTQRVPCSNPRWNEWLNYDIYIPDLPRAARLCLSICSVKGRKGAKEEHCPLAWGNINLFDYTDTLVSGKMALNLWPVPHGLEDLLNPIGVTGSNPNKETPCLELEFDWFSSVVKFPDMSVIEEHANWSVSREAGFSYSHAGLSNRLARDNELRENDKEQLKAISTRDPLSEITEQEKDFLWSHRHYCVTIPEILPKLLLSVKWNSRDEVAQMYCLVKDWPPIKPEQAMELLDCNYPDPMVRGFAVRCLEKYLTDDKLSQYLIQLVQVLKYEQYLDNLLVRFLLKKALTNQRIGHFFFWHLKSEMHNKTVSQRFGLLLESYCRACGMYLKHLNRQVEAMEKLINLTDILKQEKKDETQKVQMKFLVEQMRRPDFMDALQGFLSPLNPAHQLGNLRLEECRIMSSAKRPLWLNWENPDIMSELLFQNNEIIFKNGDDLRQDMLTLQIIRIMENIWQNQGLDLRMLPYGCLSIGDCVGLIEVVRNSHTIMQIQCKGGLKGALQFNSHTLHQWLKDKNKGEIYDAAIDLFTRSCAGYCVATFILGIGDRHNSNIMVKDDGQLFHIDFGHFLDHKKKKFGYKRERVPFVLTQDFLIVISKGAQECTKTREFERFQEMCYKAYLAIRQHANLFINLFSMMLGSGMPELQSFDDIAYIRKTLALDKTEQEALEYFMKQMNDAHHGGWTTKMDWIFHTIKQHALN

On to `Nc1ncnc2c1c(-c1cc3cc(O)ccc3[nH]1)nn2C1CCOCC1` [US10172858, Table 2.42], for which the IC50 in assay [1] and in assay [2] was above 500 nM each time. For the compound `Nc1ncnc2c1c(-c1cc3cccc(O)c3[nH]1)nn2C1CCOCC1` [US10172858, Table 2.62], the IC50 in assay [3], in assay [1] and in assay [2] was above 500 nM each time. In assay [1], `COc1cccc2cc(-c3nn(C4CCOCC4)c4ncnc(N)c34)[nH]c12` [US10172858, Table 2.63] gave a half-inhibitory concentration (IC50) above 500 nM. Same read-out and setting: for `Nc1ncnc2c1c(-c1cc3cc(O)cc(Cl)c3[nH]1)nn2C1CCOCC1` [US10172858, Table 2.68] the value was above 500 nM.

For the compound `CC(=O)N1CCC(n2nc(-c3cc4c(Cl)ccc(O)c4[nH]3)c3c(N)ncnc32)CC1` [US10172858, Table 2.69], the IC50 in assay [3], in assay [1] and in assay [2] was above 500 nM each time. In assay [1], `CC(=O)N1CCC(n2nc(-c3cc4cc(O)cc(Cl)c4[nH]3)c3c(N)ncnc32)CC1` [US10172858, Table 2.70] had an IC50 above 500 nM.
